The text below walks through data of patent US20040048791A1, “Method for treating neoplastic cells using cycloprodigiosin or salt thereof” (priority 2002, published 2004).

Structures are written as SMILES. Entries after “also recorded” stand apart in the source; their conditions may differ. Structures can show the parent of a compound that is named as a salt.

One data set relates to CRE binding factor. Kind of data set: CRE luciferase assay (pCRELuc) in COS-7 cells. Type of data set: cell-based, African green monkey. As to conditions: PMA 1 μg/ml 4 hours, FIG. 8. The protocol: Here in order to analyze the effect of cPrG-HCl on the CRE binding factor, luciferase assay was carried out using a reporter plasmid (pCRELuc) in which the luciferase gene is linked downstream of the CRE sequence.
The pCRELuc was transfected in COS-7 cells. After 24 hours, the cells were pretreated with cPrG-HCl at a specified concentration for 1 hour and further stimulated with phorbol ester myristate acetate PMA (1 μg/ml) for 4 hours, after which luciferase activity was measured.

The subject of data set [1] is HeLa cells. Kind of data set: DNA fragmentation (apoptosis) in HeLa cells. The format is cell-based. As to conditions: cPrG-HCl together with TNFα, FIG. 1A, hydrochloride. The protocol:
(§1) Cell culture: HeLa cells were cultured in Dulbecco's modified Eagle's medium supplemented with 10% fetal bovine serum and 50 μg/ml kanamycin at 37° C. in 5% CO2 in air.
(§2) Assay for apoptotic processes: Cell viability was determined by dye exclusion assay using 0.1% trypan blue. DNA fragmentation was analyzed as described previously (Kawauchi, K. et al. (1997) Biochem. Biophys. Res. Commun. 237, 543-547). In the caspase-3 assay, cells were disrupted by freeze-thaw in an extraction buffer (50 mM Tris-HCl, pH7.4, 1 mM EGTA, 5 mM EDTA, 5 mM MgCl2, 1 mM APMSF, 10 μg/ml pepstatin, 10 μg/ml leupeptin, and 1 mM DTT). Then the suspension was centrifuged at 15,000 rpm for 20 min, and the supernatants obtained were incubated at 37° C. for 60 min in a reaction buffer (50 mM Tris-HCl, pH7.4, 1 mM EDTA, 10 mM EGTA) with 20 μM of the fluorogenic substrate DEVD-AFC (Peptide Institute, Inc., Japan). Cleavage of the substrates was quantified by measuring the fluorescence of 7-amino-4-trifluomethyl coumarin released using a spectrofluorometer (Shimadzu RF5000) with excitation at 380 mn and emission at 460 nm.
HeLa cells were treated with TNFα and cPrG.HCl and the effect of cPrG.HCl on apoptosis was examined by measuring DNA fragmentation and survivability.

The subject of data set [2] is HeLa cells. Kind of data set: Cell viability by trypan blue dye exclusion assay. The format is cell-based. To be noted: FIG. 1A. Here is the method:
as §1, §2

Another data set deals with AP-1. Kind of data set: AP-1 luciferase reporter assay in various kinds of cells. The format is cell-based, human; African green monkey. As to conditions: all the cells tested: U373, 293, COS7, MKN45; FIGS. 6A to 6F. The protocol: In order to find out whether the suppression of NF-κB and AP-1 activation was specific to HeLa cells used above, analysis was made with various kind of cells. The cells used were U373 cells (human brain tumor cells), 293 cells (human embryo-derived kidney cells), COS7 cells (African green monkey kidney-derived cells), and MKN45 cells (human gastric tumor cells).
The NF-κB reporter plasmid pIG3Luc was incorporated into cells by transfection. After 24 hours, the cells were pretreated with cPrG-HCl at a specified concentration for 1 hour and then stimulated with TNFα (20 ng/ml) or PMA (1 μg/ml) for 4 hours, after which luciferase activity was measured. Each activity was corrected for the amount of protein.

A further data set has as its target T1, IκB kinase (IKK) (Homo sapiens, UniProt O14920+O15111).
T1 sequence (O15111 1-745): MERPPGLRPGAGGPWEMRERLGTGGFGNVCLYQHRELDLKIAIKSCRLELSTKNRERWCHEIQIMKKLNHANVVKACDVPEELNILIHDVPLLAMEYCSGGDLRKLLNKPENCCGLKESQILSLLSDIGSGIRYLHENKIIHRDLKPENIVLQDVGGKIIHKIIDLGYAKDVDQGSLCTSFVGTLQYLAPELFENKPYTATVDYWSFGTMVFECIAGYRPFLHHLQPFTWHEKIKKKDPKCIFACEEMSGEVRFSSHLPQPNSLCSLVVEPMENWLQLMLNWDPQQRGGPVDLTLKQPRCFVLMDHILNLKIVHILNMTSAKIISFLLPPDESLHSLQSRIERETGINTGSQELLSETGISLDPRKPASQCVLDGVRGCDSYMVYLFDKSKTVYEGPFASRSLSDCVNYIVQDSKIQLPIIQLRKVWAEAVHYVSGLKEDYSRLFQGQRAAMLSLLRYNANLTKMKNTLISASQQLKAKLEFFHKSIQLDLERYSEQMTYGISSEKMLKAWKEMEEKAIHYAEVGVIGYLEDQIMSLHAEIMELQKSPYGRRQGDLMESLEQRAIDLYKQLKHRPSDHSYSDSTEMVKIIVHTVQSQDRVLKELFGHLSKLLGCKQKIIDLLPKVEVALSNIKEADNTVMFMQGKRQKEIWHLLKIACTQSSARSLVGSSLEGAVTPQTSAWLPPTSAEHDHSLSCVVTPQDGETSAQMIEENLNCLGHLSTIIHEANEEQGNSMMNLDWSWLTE
T1 sequence (O14920 1-756): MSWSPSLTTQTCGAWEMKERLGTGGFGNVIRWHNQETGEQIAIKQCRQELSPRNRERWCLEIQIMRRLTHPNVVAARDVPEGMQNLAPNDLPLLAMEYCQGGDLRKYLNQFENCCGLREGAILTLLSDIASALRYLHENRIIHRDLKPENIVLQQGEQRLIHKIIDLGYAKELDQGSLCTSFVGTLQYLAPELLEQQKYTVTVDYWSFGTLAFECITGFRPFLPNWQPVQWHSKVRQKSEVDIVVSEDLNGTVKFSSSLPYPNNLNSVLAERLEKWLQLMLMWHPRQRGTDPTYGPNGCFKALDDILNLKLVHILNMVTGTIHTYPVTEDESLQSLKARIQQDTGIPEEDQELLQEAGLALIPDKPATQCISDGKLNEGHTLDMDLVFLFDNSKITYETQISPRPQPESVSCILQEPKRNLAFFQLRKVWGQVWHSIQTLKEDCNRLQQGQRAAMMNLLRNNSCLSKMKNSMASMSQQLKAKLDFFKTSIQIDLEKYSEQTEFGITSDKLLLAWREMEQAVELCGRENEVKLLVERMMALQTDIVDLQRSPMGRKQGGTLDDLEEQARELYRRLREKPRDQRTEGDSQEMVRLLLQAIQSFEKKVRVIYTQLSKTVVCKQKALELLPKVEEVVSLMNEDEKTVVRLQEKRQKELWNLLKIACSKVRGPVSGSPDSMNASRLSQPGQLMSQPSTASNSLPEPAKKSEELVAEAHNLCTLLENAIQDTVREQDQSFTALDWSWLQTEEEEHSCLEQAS
Kind of data set: IκB kinase activity in vitro. The format is biochemical. As to conditions: FIG. 14, hydrochloride. An excerpt: Accordingly, in order to identify the p65 kinase which cPrG-HCl suppressed, the effect of cPrG-HCl on PKA (FIG. 13), casein kinase II (CKII) (FIG. 12), and IκB kinase (IKK) (FIG. 14) was studied in vitro.

In the case of `COC1=CC(c2ccc[nH]2)=N/C1=C\c1[nH]c(C)c2c1C(C)CCC2` (stereo not drawn) [cPrG-HCl, Cycloprodigiosin hydrochloride], in the data set on CRE binding factor, the “PMA-induced CRE-dependent transcriptional activity” value is reported as “markedly suppressed”. The DNA fragmentation result in the data set on HeLa cells [1] is “marked DNA fragmentation; also recorded: significant DNA fragmentation”. For the same compound, the cell viability entry with HeLa cells [2] (cPrG-HCl present upon TNFα stimulation) is listed as “about 65%”; in the data set on HeLa cells [2] (cPrG-HCl treatment alone), “slightly decreased”. For the same compound, the AP-1 transcriptional activation result in the data set with AP-1 is reported as “suppressed”. Moreover, the “effect on IκB kinase (IKK) activity” value on IκB kinase (IKK) is reported as “does not directly suppress; also recorded: no suppressive effect”.
